Data on 7 compounds can be found in ChEMBL document CHEMBL1122800, “Synthesis of a tricyclic aphidicolin analogue that inhibits DNA synthesis in vitro” (J Med Chem, 1984).

Active and inactive are the calls of the source. The calls are words filed in the database; no cut-off is given here.

The test system of one assay is Nucleic Acid. In words: Ability of compound to inhibit DNA synthesis against the uptake of [3H]thymidine in freshly seeded cultures of SV-40 transformed WI-38 human lung fibroblast at a concentration 0.15 ug/mL.
Consider `C[C@@]1(CO)C(O)CC[C@]2(C)C3CC(O)CC3CC[C@@H]12` (some centres not stated), for which the inhibition (usually the drop in the measured response relative to a control, in per cent) worked out at 50%.

`C[C@@]1(CO)[C@H](O)CC[C@@]2(C)[C@H]1CC[C@H]1C[C@@H]3C[C@@]12CC[C@]3(O)CO`: the inhibition was determined as 50%.

In another assay the test system is Nucleic Acid. The experiment in a line: Ability of compound to inhibit DNA synthesis against the uptake of [3H]thymidine in freshly seeded cultures of SV-40 transformed WI-38 human lung fibroblast; NA = no activity.
On to `C[C@]12CCC(O)[C@@](C)(CO)[C@@H]1CCC1CC(O)C=C12` (some centres not stated), for which the inhibition entry was “inactive”.

Regarding `C[C@]12CCC(O)[C@@](C)(CO)[C@@H]1CCC1CC(=O)C[C@@H]12` (some centres not stated), the inhibition entry is “inactive”. The same measure, in the same setting: the same measure for `C[C@]12CCC(O)[C@@](C)(CO)[C@@H]1CCC1C[C@H](O)C[C@@H]12` (some centres not stated): “inactive”. `C[C@@]1(CO)C(O)CC[C@]2(C)C3CC(=O)CC3CC[C@@H]12` (some centres not stated): the inhibition result is “inactive”. The same measure, in the same setting: the same measure for `C[C@]12CCC(O)[C@@](C)(CO)[C@@H]1CCC1CC(=O)C=C12` (some centres not stated): “inactive”.
